This is an account of results in patent publication US6716851B2, “Substituted 2-aryl-4-arylaminopyrimidines and analogs as activators or caspases and inducers of apoptosis and the use thereof” (Cytovia, Inc., priority 2000, dated 2004).

One assay deals with T-47D cells. As to the kind of experiment: Caspase cascade activation (N-(Ac-DEVD)-N'-ethoxycarbonyl-R110 fluorogenic substrate) in T-47D cells. As to conditions: 48 h incubation; for EC50: Homo sapiens, T47D, caspase activation potency, read-out: T47 EC50; for T47 Ratio 48 hr: caspase activity: ratio of net RFU of test compound to control. Format: cell-based, Human. The protocol: (§1) Human breast cancer cell lines T-47D and ZR-75-1 were grown according to media component mixtures designated by American Type Culture Collection +10% FCS (Invitrogen Corporation, Life Technologies division), in a 5% CO2-95% humidity incubator at 37° C. T-47D and ZR-75-1 cells were maintained at a cell density between 50 and 80% confluency at a cell density of 0.1 to 0.6×10^6 cells/ml. Cells were harvested at 600× g and resuspended at 0.65×10^6 cells/ml into appropriate media +10% FCS. An aliquot of […] of cells was added to a well of a […] microtiter plate containing 2.5 μl of a 10% DMSO in RPMI-1640 media solution containing 0.16 to 100 μM of 4-(3-methoxyanilino)-2-(2-pyridinyl)-6-(trifluoromethyl)pyrimidine or other test compound (0.016 to 10 μM final). An aliquot of 22.5 μl of cells was added to a well of a 384-well microtiter plate containing 2.5 μl of a 10% DMSO in RPMI-1640 media solution without test compound as the control sample. The samples were mixed by agitation and then incubated at 37° C. for 48 h in a 5% CO2-95% humidity incubator. After incubation, the samples were removed from the incubator and 25 μl of a solution containing 14 μM of N-(Ac-DEVD)-N′-ethoxycarbonyl-R110 fluorogenic substrate (Cytovia, Inc.; WO99/18856), 20% sucrose (Sigma), 20 mM DTT (Sigma), 200 mM NaCl (Sigma), 40 mM Na PIPES buffer pH 7.2 (Sigma), and 500 μg/ml lysolecithin (Calbiochem) was added. The samples were mixed by agitation and incubated at room temperature. Using a fluorescent plate reader (Model SpectraMax Gemini, Molecular Devices), an initial reading (T=0) was made approximately 1-2 min after addition of the substrate solution, employing excitation at 485 nm and emission at 530 nm, to determine the background fluorescence of the control sample. After the 3 h incubation, the samples were read for fluorescence as above (T=3 h).
(§2) The Relative Fluorescence Unit values (RFU) were used to calculate the sample readings as follows:
(§3) RFU(T=3h)−Control RFU(T=0)=Net RFU(T=3h)
(§4) The activity of caspase cascade activation was determined by the ratio of the net RFU value for 4-(3-methoxyanilino)-2-(2-pyridinyl)-6-(trifluoromethyl)pyrimidine or other test compound to that of control samples. The EC50 (nM) was determined by a sigmoidal dose-response calculation (Prism 2.0, GraphPad Software Inc.).

In the next assay the test system is ZR-75-1 cells. As to the kind of experiment: Caspase cascade activation (N-(Ac-DEVD)-N'-ethoxycarbonyl-R110 fluorogenic substrate) in ZR-75-1 cells. The format is cell-based, Human. Conditions: ZR-75-1, 48 h incubation; for EC50: Homo sapiens, caspase activation potency; for ZR Ratio 48 hr: caspase activity: ratio of net RFU of test compound to control. The protocol: as §1, §2, §3, §4

On to `COCc1cc(Nc2cc(OC)ccc2OC)nc(-c2csc(C)n2)n1` [Example 45, 4-(2,5-Dimethoxyanilino)-6-(methoxymethyl)-2-(2-methyl-1-3-thiazol-4-yl)pyrimidine], for which, in the assay with T-47D cells, the EC50 (commonly the concentration needed to bring the measured effect to its halfway point) amounted to 329 nM and the “T47 Ratio 48 hr” value was determined as 21.6. Moreover, in the assay on ZR-75-1 cells, the EC50 was 387 nM and the “ZR Ratio 48 hr” value is recorded as 17.3.

Regarding `Cc1cc(C)cc(Nc2cc(C(F)(F)F)nc(-c3cccnc3)n2)c1` [Example 121, 4-(3,5-Dimethylanilino)-2-(3-pyridinyl)-6-(trifluoromethyl)pyrimidine], in the assay on T-47D cells, the EC50 was 480 nM and the “T47 Ratio 48 hr” value worked out at 11.2. In addition, in the assay on ZR-75-1 cells, the EC50 is 380 nM and the “ZR Ratio 48 hr” value is recorded as 9.9.

As to `Cc1cc(Nc2cc(C(F)(F)F)nc(-c3ccccn3)n2)c(C)cc1O.Cl` [Example 147, 4-(2,5-Dimethyl-4-hydroxyanilino)-2-(2-pyridinyl)-6-(trifluoromethyl)pyrimidine hydrochloride], in the assay with T-47D cells, the EC50 was found to be 335 nM and the “T47 Ratio 48 hr” value is given as 13.3. Moreover, in the assay with ZR-75-1 cells, the response was half-maximal at 204 nM (EC50) and the “ZR Ratio 48 hr” value is on record as 8.4.

Regarding `COc1cccc(Nc2cc(C(F)(F)F)nc(-c3cccnc3)n2)c1` [Example 19, 4-(3-Methoxyanilino)-2-(3-pyridinyl)-6-(trifluoromethyl)pyrimidine], in the assay with T-47D cells, the EC50 came to 471 nM and the “T47 Ratio 48 hr” value is 16.7. Also, in the assay on ZR-75-1 cells, the EC50 was determined as 214 nM and the “ZR Ratio 48 hr” value came to 8.9.

Regarding `COc1ccc(Cl)c(Nc2cc(C(F)(F)F)nc(-c3cc(Cl)nc(Cl)c3)n2)c1` [Example 164, 4-(2-Chloro-5-methoxyanilino)-2-(2,6-dichloro-4-pyridinyl)-6-trifluoromethyl-pyrimidine], in the assay with T-47D cells, the EC50 was > 5000 nM and the “T47 Ratio 48 hr” value is on record as 1.3. Further, in the assay on ZR-75-1 cells, the EC50 is > 5000 nM and the “ZR Ratio 48 hr” value stood at 1.3.

For the compound `CCOc1cccc(Nc2cc(C(F)(F)F)nc(-c3ccccn3)n2)c1` [Example 92, 4-(3-Ethoxyanilino)-2-(2-pyridinyl)-6-(trifluoromethyl)pyrimidine], in the assay with T-47D cells, the EC50 is 363 nM and the “T47 Ratio 48 hr” value turned out to be 16.8. In the assay on ZR-75-1 cells, the EC50 was 285 nM and the “ZR Ratio 48 hr” value was 12.4.

Regarding `COc1ccc(Br)cc1Nc1cc(C(F)(F)F)nc(-c2cccnc2)n1` [Example 126, 4-(5-Bromo-2-methoxyanilino)-2-(3-pyridinyl)-6-(trifluoromethyl)pyrimidine], in the assay with T-47D cells, the EC50 was 222 nM and the “T47 Ratio 48 hr” value was determined as 12.0. Also, in the assay on ZR-75-1 cells, the response was half-maximal at 353 nM (EC50) and the “ZR Ratio 48 hr” value amounted to 5.9.

Consider `COc1cc(C#N)c(Nc2cc(C(F)(F)F)nc(-c3cccnc3)n2)cc1OC` [Example 203, 4-(2-Cyano-4,5-dimethoxyanilino)-2-(3-pyridinyl)-6-trifluoromethylpyrimidine], for which, in the assay with T-47D cells, the EC50 was found to be 843 nM and the “T47 Ratio 48 hr” value is listed as 10.7. Also, in the assay on ZR-75-1 cells, the EC50 was 2630 nM and the “ZR Ratio 48 hr” value came out at 3.4.

For the compound `COc1cccc(CNc2cc(C(F)(F)F)nc(-c3cccnc3)n2)c1` [Example 104, 4-(3-Methoxybenzylamino)-2-(3-pyridinyl)-6-(trifluoromethyl)pyrimidine], in the assay on T-47D cells, the EC50 is > 5000 nM and the “T47 Ratio 48 hr” value is recorded as 1.1. Also, in the assay with ZR-75-1 cells, the EC50 was > 5000 nM and the “ZR Ratio 48 hr” value is 1.7.

In the case of `COc1cccc(Nc2cc(C(F)(F)F)nc(-c3ccccc3)n2)c1` [Example 73, 4-(3-Methoxyanilino)-2-phenyl-6-(trifluoromethyl)pyrimidine], in the assay with T-47D cells, the EC50 is > 5000 nM and the “T47 Ratio 48 hr” value is reported as 1.6. In the assay on ZR-75-1 cells, the EC50 came out at 10000 nM and the “ZR Ratio 48 hr” value turned out to be 2.6.

Regarding `COc1ccc(Cl)c(Nc2cc(C)nc(N3CCOCC3)n2)c1` [Example 131, 4-(6-Chloro-3-methoxyanilino)-2-morpholino-6-(methyl)pyrimidine], in the assay on T-47D cells, the EC50 was > 5000 nM and the “T47 Ratio 48 hr” value was determined as 1.2. In the assay with ZR-75-1 cells, the EC50 was > 5000 nM and the “ZR Ratio 48 hr” value is 1.2.

`FC(F)(F)c1cc(Nc2ccc3[nH]ccc3c2)nc(-c2cccnc2)n1` [Example 166, 4-(1 H-5-Indolyl-amino)-2-(3-pyridinyl)-6-trifluoromethyl-pyrimidine]: in the assay on T-47D cells, the EC50 worked out at 870 nM and the “T47 Ratio 48 hr” value amounted to 8.0. For the same compound, in the assay on ZR-75-1 cells, the response was half-maximal at 532 nM (EC50) and the “ZR Ratio 48 hr” value is 3.3.

For `CSc1cccc(Nc2cc(C(F)(F)F)nc(-c3ccccn3)n2)c1` [Example 96, 4-(3-Methylmercaptoanilino)-2-(2-pyridinyl)-6-(trifluoromethyl)pyrimidine], in the assay with T-47D cells, the EC50 was > 5000 nM and the “T47 Ratio 48 hr” value is recorded as 1.4. Further, in the assay with ZR-75-1 cells, the EC50 was 2760 nM and the “ZR Ratio 48 hr” value was determined as 4.9.

`Cc1ccc(N)cc1Nc1cc(C(F)(F)F)nc(-c2cccnc2)n1.Cl` [Example 91, 4-(5-Amino-2-methylanilino)-2-(3-pyridinyl)-6-(trifluoromethyl)pyrimidine hydrochloride]: in the assay with T-47D cells, the EC50 was found to be 1440 nM and the “T47 Ratio 48 hr” value was found to be 11.7. In the assay with ZR-75-1 cells, the EC50 is 788 nM and the “ZR Ratio 48 hr” value is 8.8.

Turning to `Cl.FC(F)(F)Oc1cccc(Nc2cc(C(F)(F)F)nc(-c3ccccn3)n2)c1` [Example 156, 4-(3-Trifluoromethoxyanilino)-2-(2-pyridinyl)-6-(trifluoromethyl)pyrimidine hydrochloride], in the assay with T-47D cells, the EC50 is > 5000 nM and the “T47 Ratio 48 hr” value is reported as 1.7. For the same compound, in the assay with ZR-75-1 cells, the EC50 was found to be 2260 nM and the “ZR Ratio 48 hr” value is 4.1.

Take `COc1ccc(Cl)c(Nc2cc(C(F)(F)F)nc(-c3ccccc3)n2)c1` [Example 81, 4-(2-Chloro-5-methoxyanilino)-2-phenyl-6-(trifluoromethyl)pyrimidine]: in the assay on T-47D cells, the EC50 turned out to be 5050 nM and the “T47 Ratio 48 hr” value amounted to 12.7. Besides, in the assay on ZR-75-1 cells, the EC50 turned out to be 5500 nM and the “ZR Ratio 48 hr” value was 5.0.

For `Fc1c(F)c(F)c(Oc2cccc(Nc3cc(C(F)(F)F)nc(-c4cccnc4)n3)c2)c(F)c1F` [Example 62, 4-[3-(2,3,4,5,6-Pentafluorophenoxy)anilino]-2-(3-pyridinyl)-6-(trifluoromethyl)pyrimidine], in the assay with T-47D cells, the EC50 was > 5000 nM and the “T47 Ratio 48 hr” value amounted to 1.6. In the assay with ZR-75-1 cells, the EC50 was > 5000 nM and the “ZR Ratio 48 hr” value was found to be 1.3.

On to `Oc1ccc(Cl)c(Nc2cc(C(F)(F)F)nc(-c3ccncc3)n2)c1` [Example 107, 4-(2-Chloro-5-hydroxyanilino)-2-(4-pyridinyl)-6-(trifluoromethyl)pyrimidine], for which, in the assay with T-47D cells, the EC50 was found to be 63 nM and the “T47 Ratio 48 hr” value was found to be 8.0. Also, in the assay with ZR-75-1 cells, a half-maximal effect (EC50) was put at 123 nM and the “ZR Ratio 48 hr” value stood at 5.3.

For `COc1ccc(Cl)c(Nc2cc(C(F)(F)F)nc(-c3cnccn3)n2)c1` [Example 82, 4-(2-Chloro-5-methoxyanilino)-2-(2-pyrazinyl)-6-(trifluoromethyl)pyrimidine], in the assay with T-47D cells, the EC50 is 254 nM and the “T47 Ratio 48 hr” value worked out at 15.3.

Turning to `Oc1ccc(Cl)c(Nc2cc(C(F)(F)F)nc(-c3cnccn3)n2)c1` [Example 194, 4-(2-Chloro-5-hydroxyanilino)-2-(2-pyrazinyl)-6-trifluoromethylpyrimidine], in the assay with T-47D cells, the EC50 came to 107 nM and the “T47 Ratio 48 hr” value was found to be 11.7.

Regarding `Cc1ccc(C)c(Nc2cc(C(F)(F)F)nc(-c3cnccn3)n2)c1` [Example 196, 4-(2,5-Dimethylanilino)-2-(2-pyrazinyl)-6-trifluoromethylpyrimidine], in the assay with T-47D cells, the EC50 was found to be 527 nM and the “T47 Ratio 48 hr” value turned out to be 11.3.

On to `COc1cc(Nc2cc(C(F)(F)F)nc(-c3ccccn3)n2)cc(OC)c1` [Example 195, 4-(3,5-Dimethoxyanilino)-2-(2-pyridinyl)-6-trifluoromethylpyrimidine], for which, in the assay with T-47D cells, the EC50 came to 20 nM and the “T47 Ratio 48 hr” value is listed as 8.4.

In the case of `COc1ccc(OC)c(Nc2cc(C(F)(F)F)nc(-c3cnccn3)n2)c1` [Example 76, 4-(2,5-Dimethoxyanilino)-2-(2-pyrazinyl)-6-(trifluoromethyl)pyrimidine], in the assay with T-47D cells, the EC50 was < 150 nM and the “T47 Ratio 48 hr” value was found to be 8.5.
